Consider six molecules from patent US5604245A, “Use of 4-amino-1-(2-pyridyl)piperidines for the preparation of a medicament for the treatment of conditions deriving from disorders of the serotoninergic systems mediated by 5-HT3 receptors” (priority 1991, dated 1997).

Assay [1] has as its target T1, 5-HT3 receptors (Rattus norvegicus, UniProt P35563).
T1 sequence (P35563 24-483): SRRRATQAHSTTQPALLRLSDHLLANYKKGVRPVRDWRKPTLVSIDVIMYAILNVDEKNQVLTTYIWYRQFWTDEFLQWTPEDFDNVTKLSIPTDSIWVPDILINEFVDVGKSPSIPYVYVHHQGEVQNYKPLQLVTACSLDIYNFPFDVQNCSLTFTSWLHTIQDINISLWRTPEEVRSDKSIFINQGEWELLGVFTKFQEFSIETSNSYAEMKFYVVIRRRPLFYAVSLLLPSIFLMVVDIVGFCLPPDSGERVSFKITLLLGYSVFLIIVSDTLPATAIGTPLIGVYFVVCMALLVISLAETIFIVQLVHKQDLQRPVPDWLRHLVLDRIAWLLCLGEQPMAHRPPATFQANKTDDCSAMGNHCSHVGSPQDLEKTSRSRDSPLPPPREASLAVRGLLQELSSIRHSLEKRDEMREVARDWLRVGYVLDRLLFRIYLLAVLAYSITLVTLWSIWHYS
Nature of the assay: biochemical. The format is binding. Also noted: the cortical tissue from 4 animals was homogenized in 20 volumes of HEPES; from tissue; host or cells: cerebral cortical membranes of male rats (about 200 g).
Description: The potency of the compounds of formula (I') in displacing [^3 H]
For the preparation of cerebral membranes, male rats weighing about 200 g and sacrificed by decapitation were employed. […] In summary, the cortical tissue from 4 animals was homogenized in 20 volumes of HEPES and kept at 4° C. until used in the binding assays.

Assay [2] deals with T1, 5-HT3 receptors. Nature of the assay: Bezold-Jarish test in the anaesthetised rat (reduction of heart rate). The conditions noted are these: for ED50: rat, read-out: ID50 i.v. (dose which inhibits by 50% the heart rate); for inhibition of the Bezold-Jarish effect evoked by compounds of formula (I'): anaesthetised rat. The assay is classed as in vivo. On the set-up: evokes in the anaesthetised rat, a short-lived reduction of heart rate (Bezold-Jarish effect); from tissue; host or cells: whole animal: urethane-anaesthetised Sprague-Dawley rat. As for the experimental part:
Selective 5-HT3 agonist activity of the compounds of formula (I') was confirmed in vivo in the Bezold-Jarish test. In this test, intravenous administration of the compounds of formula (I') evokes in the anaesthetised rat, a short-lived reduction of heart rate (Bezold-Jarish effect).
More particularly, the Bezold-Jarish effect evoked by the compounds of formula (I') was evaluated using Sprague-Dawley rats weighing from 200 to 300 g, anaesthetised with urethane 1.25 g/kg i.p. The blood pressure was recorded from the carotid artery and heart rate was evaluated, as pulse frequency, by means of a cardiotachometer. A catheter was inserted into the jugular vein for the administration of the substances.

Assay [3] concerns 5-HT3 receptors (mice striatum). Nature of the assay: turning test in mice. The format is in vivo. The conditions noted are these: for turning behaviour after injection into the mice striatum: intrastriatal injection, inhibited by 5-HT3 receptor antagonists. The text has this: CM 57227 was also studied in the "turning" test carried out as described by P. Worms et al. in Life Sciences, 1986, 39, 2199-2208.

In a further assay the target is adrenergic sites α2. Nature of the assay: displacement of labelled specific ligand from adrenergic sites α2. The assay is classed as binding. The settings on record: no affinity. The text has this:
(§1) This affinity for 5-HT3 receptors is also selective.

For another assay, the target named is adrenergic sites β1 (Homo sapiens, UniProt P08588). Nature of the assay: displacement of labelled specific ligand from adrenergic sites β1. The format is binding. The settings on record: no affinity.
Sequence of adrenergic sites β1 (P08588 whole entry): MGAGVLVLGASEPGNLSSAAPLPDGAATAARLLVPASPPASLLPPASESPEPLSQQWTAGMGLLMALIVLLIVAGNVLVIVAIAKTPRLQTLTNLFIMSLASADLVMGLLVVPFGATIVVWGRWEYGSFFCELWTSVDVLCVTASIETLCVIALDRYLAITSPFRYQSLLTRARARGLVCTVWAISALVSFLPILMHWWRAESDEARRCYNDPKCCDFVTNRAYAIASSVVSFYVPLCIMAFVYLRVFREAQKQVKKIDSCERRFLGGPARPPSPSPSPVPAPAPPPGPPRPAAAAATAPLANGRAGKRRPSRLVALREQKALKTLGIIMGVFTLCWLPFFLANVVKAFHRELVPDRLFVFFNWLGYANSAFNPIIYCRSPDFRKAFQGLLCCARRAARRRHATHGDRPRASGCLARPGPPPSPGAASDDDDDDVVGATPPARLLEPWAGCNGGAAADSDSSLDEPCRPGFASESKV
Description: as §1

A further assay addresses dopaminergic sites D1 (Homo sapiens, UniProt P21728). As to the kind of experiment: displacement of labelled specific ligand from dopaminergic sites D1. The assay is classed as binding. The conditions noted are these: no affinity.
Description: as §1

The target of another assay is adrenergic sites α1. As to the kind of experiment: displacement of labelled specific ligand from adrenergic sites α1. The settings on record: no affinity. The format is binding.
Description: as §1

For another assay, the target named is T2, 5-HT1A receptors (Homo sapiens, UniProt P08908).
T2 sequence (P08908 1-422): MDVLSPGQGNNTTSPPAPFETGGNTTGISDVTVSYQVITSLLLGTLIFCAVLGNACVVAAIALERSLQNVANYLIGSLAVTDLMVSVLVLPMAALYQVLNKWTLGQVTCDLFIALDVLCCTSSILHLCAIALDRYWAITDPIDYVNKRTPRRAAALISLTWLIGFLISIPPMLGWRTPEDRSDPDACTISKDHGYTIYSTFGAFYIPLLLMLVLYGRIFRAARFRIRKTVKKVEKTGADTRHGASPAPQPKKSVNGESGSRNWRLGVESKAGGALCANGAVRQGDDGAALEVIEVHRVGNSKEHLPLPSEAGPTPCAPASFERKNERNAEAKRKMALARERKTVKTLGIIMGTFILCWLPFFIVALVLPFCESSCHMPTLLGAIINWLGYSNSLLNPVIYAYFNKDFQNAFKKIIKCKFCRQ
Nature of the assay: displacement of labelled specific ligand from 5-HT1A receptors. The assay is classed as binding. The settings on record: no affinity.
Description: as §1

A further assay addresses 5-HT1B receptors (Rattus norvegicus, UniProt P28564). Nature of the assay: displacement of labelled specific ligand from 5-HT1B receptors. The format is binding. The conditions noted are these: no affinity.
Description: as §1

For the next assay, the target named is dopaminergic sites D2 (Homo sapiens, UniProt P14416). Nature of the assay: displacement of labelled specific ligand from dopaminergic sites D2. The format is binding. The settings on record: no affinity.
Sequence of dopaminergic sites D2 (P14416 whole entry): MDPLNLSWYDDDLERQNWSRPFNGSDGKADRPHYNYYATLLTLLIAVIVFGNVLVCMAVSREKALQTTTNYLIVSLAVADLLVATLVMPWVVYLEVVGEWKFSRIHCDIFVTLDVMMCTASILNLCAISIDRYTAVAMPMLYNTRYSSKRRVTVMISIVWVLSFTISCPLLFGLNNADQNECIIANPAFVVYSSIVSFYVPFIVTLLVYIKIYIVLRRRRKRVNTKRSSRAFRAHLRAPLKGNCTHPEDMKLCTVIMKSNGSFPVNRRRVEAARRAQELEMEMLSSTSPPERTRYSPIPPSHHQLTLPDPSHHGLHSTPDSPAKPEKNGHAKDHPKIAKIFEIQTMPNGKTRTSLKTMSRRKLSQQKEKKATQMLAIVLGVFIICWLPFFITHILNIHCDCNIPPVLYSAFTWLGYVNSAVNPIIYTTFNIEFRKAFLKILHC
Description: as §1

Assay [4] has as its system 5-HT3 receptors. As to the kind of experiment: fecal excretion in rats (intestinal prokinetic activity). The format is in vivo. As for the experimental part: Said activity was investigated by means of a test aimed at evaluating fecal excretion in rats. […] The compounds of formula (I') to be tested were administered subcutaneously. The treatment schedule provided for 8 animals in each group. At the time of drug treatment, the rectal lumen was manually emptied from any residual feces and the animals were then placed again into their cages. 90 Minutes after the treatment the fecal pellets were collected, their number was determined and their wet weight measured. They were then put in the oven and dried for 10 hours at 40° C. for the determination of the dry weight. The parameter used to evaluate the activity of the test compounds was the dry weight (in grams) of the feces excreted during the 90 minutes following the subcutaneous administration of the test compound.

In the next assay the target is serotonin uptake sites (Homo sapiens, UniProt P31645). Nature of the assay: [3H] paroxetine displacement test. The format is binding.
Sequence of serotonin uptake sites (P31645 whole entry): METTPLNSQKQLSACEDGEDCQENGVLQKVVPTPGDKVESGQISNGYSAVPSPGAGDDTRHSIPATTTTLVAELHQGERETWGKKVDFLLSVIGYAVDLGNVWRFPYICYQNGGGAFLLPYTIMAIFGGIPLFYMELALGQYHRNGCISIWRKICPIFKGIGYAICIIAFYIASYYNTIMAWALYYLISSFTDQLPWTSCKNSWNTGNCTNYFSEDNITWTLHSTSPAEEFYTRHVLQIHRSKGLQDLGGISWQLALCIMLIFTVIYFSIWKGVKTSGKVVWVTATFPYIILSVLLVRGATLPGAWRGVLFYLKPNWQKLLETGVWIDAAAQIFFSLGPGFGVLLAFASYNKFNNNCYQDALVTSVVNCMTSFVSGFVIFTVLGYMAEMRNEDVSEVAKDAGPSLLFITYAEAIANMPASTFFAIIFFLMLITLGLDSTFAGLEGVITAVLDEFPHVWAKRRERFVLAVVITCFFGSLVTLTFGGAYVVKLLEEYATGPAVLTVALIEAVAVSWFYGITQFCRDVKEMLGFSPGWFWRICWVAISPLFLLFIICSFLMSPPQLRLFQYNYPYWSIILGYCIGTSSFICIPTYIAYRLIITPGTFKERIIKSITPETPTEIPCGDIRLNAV
Description: as §1

For a further assay, the target named is T3, central 5-HT3 receptors (Mus musculus, UniProt P23979).
T3 construct: from tissue; host or cells: cortical cerebral membranes of mice dosed intraperitoneally
T3 sequence (P23979 24-489): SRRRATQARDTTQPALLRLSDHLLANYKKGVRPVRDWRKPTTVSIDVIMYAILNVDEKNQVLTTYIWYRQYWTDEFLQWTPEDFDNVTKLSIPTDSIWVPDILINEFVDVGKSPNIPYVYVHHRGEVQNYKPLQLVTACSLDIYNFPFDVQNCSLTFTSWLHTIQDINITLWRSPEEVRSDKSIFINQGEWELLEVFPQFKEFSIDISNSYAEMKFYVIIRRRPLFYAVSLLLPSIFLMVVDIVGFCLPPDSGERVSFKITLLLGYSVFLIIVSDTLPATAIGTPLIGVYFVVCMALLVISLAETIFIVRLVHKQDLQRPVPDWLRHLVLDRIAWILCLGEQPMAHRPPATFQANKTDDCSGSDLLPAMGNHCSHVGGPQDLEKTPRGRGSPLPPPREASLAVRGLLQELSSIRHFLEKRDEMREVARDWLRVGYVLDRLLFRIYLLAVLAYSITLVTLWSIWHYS
Nature of the assay: ex vivo inhibition of [3H] BRL 43694 specific binding to cortical cerebral membranes in mice.

Read-outs that look alike come from different tables or passages of the source.

Sequence of 5-HT1B receptors (P28564 whole entry): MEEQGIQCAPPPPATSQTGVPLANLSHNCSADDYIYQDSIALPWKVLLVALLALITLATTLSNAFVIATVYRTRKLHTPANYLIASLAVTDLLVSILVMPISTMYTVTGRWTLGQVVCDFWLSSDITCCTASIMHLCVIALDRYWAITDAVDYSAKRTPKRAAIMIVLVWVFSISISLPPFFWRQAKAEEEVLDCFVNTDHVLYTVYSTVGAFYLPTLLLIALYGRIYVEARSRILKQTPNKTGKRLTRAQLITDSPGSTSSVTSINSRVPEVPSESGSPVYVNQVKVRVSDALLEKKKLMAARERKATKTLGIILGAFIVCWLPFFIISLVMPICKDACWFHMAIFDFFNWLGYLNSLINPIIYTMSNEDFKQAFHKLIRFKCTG
Sequence of dopaminergic sites D1 (P21728 whole entry): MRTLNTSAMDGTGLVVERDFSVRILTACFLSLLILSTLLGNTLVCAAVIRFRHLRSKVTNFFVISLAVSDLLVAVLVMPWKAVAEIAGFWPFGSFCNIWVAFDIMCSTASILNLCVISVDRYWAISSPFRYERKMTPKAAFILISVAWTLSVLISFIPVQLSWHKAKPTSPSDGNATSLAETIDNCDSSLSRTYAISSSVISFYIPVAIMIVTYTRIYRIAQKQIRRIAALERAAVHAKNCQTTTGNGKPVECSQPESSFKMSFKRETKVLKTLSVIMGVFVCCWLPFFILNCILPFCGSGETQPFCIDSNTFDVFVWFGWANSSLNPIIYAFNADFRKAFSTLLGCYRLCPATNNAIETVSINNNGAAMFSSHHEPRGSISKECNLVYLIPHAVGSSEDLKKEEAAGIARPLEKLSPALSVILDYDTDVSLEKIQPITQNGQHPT

As to `Cc1[nH]c2ccc(O)cc2c1CCN` [2-methylserotonin, reference compound], at 5-HT3 receptors [1], the affinity, expressed as Ki, was 1.11 µM. At 5-HT3 receptors [2] (anaesthetised Sprague-Dawley rats, intravenous), the ED50 is 0.005 mg/kg. Also, the “turning behaviour after injection into the mice striatum” value in [3] is recorded as “evokes a turning behaviour”.
Take `Cl.NC1CCN(c2cccc(Cl)n2)CC1` [CM 57227, 4-amino-1-(6-chloro-2-pyridyl)piperidine hydrochloride]: the inhibition constant (Ki) (as a rule, the equilibrium dissociation constant of an inhibitor or competing ligand from its target) on adrenergic sites α2 was over 10 µM; at adrenergic sites β1 it was over 10 µM; at dopaminergic sites D1, over 10 µM; on 5-HT3 receptors [1] (0.5 nM [3H] BRL 43694, 30 minutes at 25° C., rat cortical membranes, read-out: Ki, displacement of [3H] BRL 43694) it was 0.193 µM; on adrenergic sites α1, over 10 µM; at 5-HT1A receptors, over 10 µM. Further, the inhibitory constant (Ki) on 5-HT1B receptors, at dopaminergic sites D2 and at serotonin uptake sites was over 10 µM in each case. Besides, the ED50 was 0.00829 mg/kg at 5-HT3 receptors [2] (iv); 0.25 mg/kg in [3] (Mus musculus, ip, mice, test compound i.p., ondansetron 1 mg/kg i.p., intrastriatal 2-methylserotonin, read-out: ED50, blockade of ondansetron antagonism of 2-methylserotonin-induced turning behaviour); 1 mg/kg on central 5-HT3 receptors (mouse, ip, 0.5 h, read-out: ID50 i.p., extrapolated to zero dilution (dose inhibiting by 50% [3H] BRL 43694 binding), mice, 30 minutes after i.p. administration). In assay [3], the “turning behaviour after injection into the mice striatum” value was “evokes a turning behaviour”. In addition, in the assay with 5-HT3 receptors [4] (2.5 mg/kg s.c.), the “dry weight of feces excreted during 90 minutes” value is on record as “about 1.3 g”. Moreover, the “ID50 p.o., extrapolated to zero dilution” value at central 5-HT3 receptors (mice, oral administration, compared with ID50 i.p. of 1 mg/kg) is listed as “of the same magnitude order”. The “ID50 for [3H] BRL 43694 binding compared with ID50 for [3H] paroxetine (serotonin uptake sites)” value at central 5-HT3 receptors (same experimental conditions) is “markedly lower”.
With `NCCc1c[nH]c2ccc(O)cc12` [serotonin], the ED50 at 5-HT3 receptors [2] (iv) was found to be 0.0136 mg/kg.
For `COc1cc(N)c(Cl)cc1C(=O)NC1CN2CCC1CC2` (stereo not shown) [zacopride], the “inhibition of the Bezold-Jarish effect evoked by compounds of formula (I')” value against 5-HT3 receptors [2] was “inhibited”. Besides, the “antagonism of the fecal excretion stimulating activity of compounds of formula (I')” value in the assay with 5-HT3 receptors [4] is recorded as “antagonised”.
For `CN1C2CCC1CC(OC(=O)c1c[nH]c3ccccc13)C2` (stereo not shown) [ICS 205-930], in that order: “inhibited” and “antagonised”.
For the molecule `CC[C@@H](CO)NC(=O)[C@@H]1C=C2c3cccc4c3c(cn4C)C[C@H]2N(C)C1` [methysergide], the “inhibition of the Bezold-Jarish effect evoked by compounds of formula (I')” value against 5-HT3 receptors [2] was “not inhibited”.
